Experiments:
[1] = Apparent permeability coefficient through excised cornea mounted between diffusion cells; format: in vitro ADME, Albino rabbits
Protocol: Albino rabbits were sacrificed, and within 15 minutes, the corneas were mounted and clamped between diffusion cells according to the published procedure by Schoenwald et al. (J. Pharm. Sci. 72, 1266, 1983). 7 ml of bicarbonated Ringer's solution containing reduced glutathione was added to the endothelial side to serve as the receiver solution. An equal volume of the same solution containing Atenolol, a β-blocker, with or without dodecyl maltoside (DDM) was added to the epithelial side to serve as the donor solution. The apparent permeability coefficient was calculated from the average cumulative amount of drug penetrating through the cornea over time according to Schoenwald.
The procedure in Example 8 was repeated with the following para-amino clonidine formulations.
The procedure of Example 8 was repeated with Atenolol except dodecyl maltoside was substituted with 0.1% amount by weight of each of the following substituted glycosides of this invention and the following results were obtained.

[2] = Penetration of para-aminoclonidine through the cornea: amount in aqueous humor after topical dosing, liquid scintillation counting; format: in vivo, New Zealand albino rabbits; conditions: 60 minutes; 0.125% para-amino-clonidine with 0.05% dodecyl maltoside versus drug without dodecyl maltoside; 30 ul topical
Protocol: Nine New Zealand albino rabbits were selected for evaluation of the penetration through the cornea of the para-amino-clonidine formulation set forth above. All rabbits received 30 ul of the 0.125% para-amino-clonidinetopically in both eyes. Three rabbits were sacrificed at 20 minutes from dosing and aqueous humor was withdrawn from their eyes. The aqueous humor as assayed by liquid scintillation counting to determine the amount of para-amino-clonidine in the aqueous humor. The same procedure was done on 3 different rabbits at 60 minutes from dosing and on another 3 rabbits, 120 minutes from dosing. […] Aqueous humor was withdrawn and assayed as explained above.
Nine New Zealand albino rabbits were selected for evaluation of the penetration through the cornea of the para-amino-clonidine formulation set forth above. All rabbits received 30 ul of the 0.125% para-amino-clonidinetopically in both eyes. Three rabbits were sacrificed at 20 minutes from dosing and their aqueous humor was withdrawn from their eyes. The aqueous humor was assayed by liquid scintillation counting to determine the amount of para-amino-clonidine in the aqueous humor. The same procedure was done on three different rabbits at 60 minutes from dosing and on another three rabbits, 120 minutes from dosing. […] Aqueous humor was withdrawn and assayed as explained above.

| permeation for para-amino clonidine as compared to control [1] | increase in the amount of para-aminoclonidine found in the aqueous humor [2] | Permeability Coefficient ([1]; rabbit) [cm/sec × 10^-6] | Molecule |
| --- | --- | --- | --- |
| superior permeation | four |  | CCCCCCCCCCCCO[C@@H]1O[C@H](CO)[C@@H](O[C@H]2O[C@H](CO)[C@@H](O)[C@H](O)[C@H]2O)[C@H](O)[C@H]1O [dodecyl maltoside, Dodecyl maltoside] |
|  |  | 14.0 | Lysophosphatidyl Inositol |

From patent publication US5369095A, “Compositions and method comprising substituted glycosides as mucus membrane permeation enhancers” (priority 1993, dated 1994)
